A word on the IC50: it is the concentration at which inhibition is half-maximal.

Results on 41 compounds are retold here after patent US6949571B2, “1,2-dihydropyridine compounds, process for preparation of the same and use thereof” (Eisai Co., Ltd., priority 2000, dated 2005).

Where two headings read alike, the source gives them in different places.

This assay deals with AMPA receptor.
[1] abbreviates: Table 1, primary culture of rat embryo cerebral cortex nerve cells, 2 μM AMPA, 1 μM MK-801.
[2] abbreviates: Table 2, suppression of AMPA-induced calcium influx into nerve cells.
[3] abbreviates: Table 3, primary culture of rat embryo cerebral cortex nerve cells, 2 μM AMPA, 1 μM MK-801.
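Also: primary rat embryonic cortical neurons grown on an astrocyte layer in 96-well plates, used after at least 8 to 10 days in culture, Fura2-AM fluorescence ratio at 340/380 nm excitation.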

With `COc1ncccc1-c1cc(-c2ccccn2)cn(-c2ccccc2)c1=O` [Example 81, 3-(2-Methoxy-3-pyridyl)-5-(2-pyridyl)-1-phenyl-1,2-dihydropyridin-2-one], under setting [1], the midpoint of inhibition, the IC50, lay at 2700 nM. `N#Cc1ccccc1-c1cc(-c2ccccn2)cn(-c2ccoc2)c1=O` [Example 106] returned an IC50 under setting [1] of 70 nM. Turning to `Cc1ccnc(-c2cc(-c3ccccc3C#N)c(=O)n(-c3ccccc3)c2)c1` [Example 197, 3-(2-Cyanophenyl)-5-(4-methylpyridin-2-yl)-1-phenyl-1,2-dihydropyridin-2-one], the IC50 under setting [2] was 2900 nM. As for `N#Cc1ccccc1-c1cc(-c2nc3ccccc3n2-c2ccccc2)cn(-c2ccccc2)c1=O` [Example 182, 3-(2-Cyanophenyl)-5-(1-phenylbenzimidazol-2-yl)-1-phenyl-1,2-dihydropyridin-2-one], the IC50 under setting [2] was determined as 6000 nM. Under setting [1], `N#Cc1ccccc1-c1cc(-c2ccccn2)cn(-c2ccc(C=O)cc2)c1=O` [Example 100, 3-(2-Cyanophenyl)-5-(2-pyridyl)-1-(4-formylphenyl)-1,2-dihydropyridin-2-one] displayed an IC50 of 400 nM. For `N#Cc1ccccc1-c1cc(-c2ccccn2)cn(-c2ccc(CO)cc2)c1=O` [Example 148, 3-(2-Cyanophenyl)-5-(2-pyridyl)-1-(4-hydroxymethylphenyl)-1,2-dihydropyridin-2-one], under setting [2], the IC50 came out at 800 nM.

`CC(=O)Nc1cccc(-c2cc(-c3ccccc3C#N)c(=O)n(-c3ccccc3)c2)n1` [Example 229, 5-[(6-Acetylamino)pyridin-2-yl]-3-(2-cyanophenyl)-1-phenyl-1,2-dihydropyridin-2-one]: the 50% inhibitory concentration (IC50) under setting [2] was 4200 nM. Take `Cc1cccc(C)c1-c1cc(-c2ccccn2)cn(-c2cccnc2)c1=O` [Example 135, 3-(2,6-Dimethylphenyl)-5-(2-pyridyl)-1-(3-pyridyl)-1,2-dihydropyridin-2-one]: under setting [2], the IC50 was 40 nM. With `CCN(CC)Cc1sccc1-c1cc(-c2ccccc2C#N)c(=O)n(-c2ccccc2)c1` [Example 29, 3-(2-Cyanophenyl)-5-(2-diethylaminomethylthiophen-3-yl)-1-phenyl-1,2-dihydropyridin-2-one], the IC50 under setting [1] is 100 nM. For `COC(=O)c1cccc(-n2cc(-c3ccccn3)cc(-c3ccccc3C#N)c2=O)c1` [Example 14, 3-(2-Cyanophenyl)-5-(2-pyridyl)-1-(3-methoxycarbonylphenyl)-1,2-dihydropyridin-2-one], the IC50 under setting [1] came out at 100 nM. For `N#Cc1ccccc1-c1cc(-c2ccccn2)c(=O)n(-c2ccccc2)c1` [Example 33, 3-(2-Pyridyl)-5-(2-cyanophenyl)-1-phenyl-1,2-dihydropyridin-2-one], it took 700 nM to reach half-maximal inhibition under setting [1] (IC50). For the compound `COc1cccc(-c2cc(-c3ccccc3C#N)c(=O)n(-c3ccccc3)c2)n1` [Example 206, 3-(2-Cyanophenyl)-5-(2-methoxypyridin-6-yl)-1-phenyl-1,2-dihydropyridin-2-one], the IC50 under setting [2] stood at 500 nM.

In the case of `O=c1c(-c2ccccc2O)cc(-c2ccccn2)cn1-c1ccccc1` [Example 141, 3-(2-Hydroxyphenyl)-5-(2-pyridyl)-1-phenyl-1,2-dihydropyridin-2-one], under setting [2], the IC50 was 700 nM. `CCN(CC)CCOc1cccc(-n2cc(-c3ccccn3)cc(-c3ccccc3C#N)c2=O)c1` [Example 246, 3-(2-Cyanophenyl)-1-[3-(diethylaminoethoxy)phenyl]-5-(2-pyridyl)-1,2-dihydropyridin-2-one]: the IC50 under setting [2] stood at 1100 nM. The compound `N#Cc1ccc(-c2cc(-c3ccccn3)cn(-c3ccccc3)c2=O)cc1` [Example 64, 3-(4-Cyanophenyl)-5-(2-pyridyl)-1-phenyl-1,2-dihydropyridin-2-one] had an IC50 under setting [1] of 2800 nM. Still for that read-out and setting: then `O=c1c(-c2cccc(Cl)c2)cc(-c2ccccn2)cn1-c1ccccc1` [Example 65, 3-(3-Chlorophenyl)-5-(2-pyridyl)-1-phenyl-1,2-dihydropyridin-2-one], with 600 nM. Regarding `O=c1c(-c2ccccc2Cl)cc(COc2ccccc2)cn1-c1ccccc1` [Example 185, 3-(2-Chlorophenyl)-5-phenoxymethyl-1-phenyl-1,2-dihydropyridin-2-one], the IC50 under setting [2] was determined as 1700 nM. `COc1ccc(-n2cc(-c3ccccn3)cc(-c3ccccc3C#N)c2=O)cc1` [Example 95, 3-(2-Cyanophenyl)-5-(2-pyridyl)-1-(4-methoxyphenyl)-1,2-dihydropyridin-2-one] had an IC50 under setting [1] of 300 nM. As for `O=c1c(-c2ccnnc2)cc(-c2ccccn2)cn1-c1ccccc1` [Example 259, 1-Phenyl-3-(4-pyridazyl)-5-(2-pyridyl)-1,2-dihydropyridin-2-one], the IC50 under setting [2] worked out at 2000 nM.

Take `O=c1c(C=Cc2ccccn2)cc(-c2ccccn2)cn1-c1ccccc1` [Example 187, 3-(2-Pyridylethenyl)-5-(2-pyridyl)-1-phenyl-1,2-dihydropyridin-2-one]: the IC50 under setting [2] is 6100 nM. For `N#Cc1ccccc1-c1cc(C(=O)c2ccccn2)cn(-c2ccccc2)c1=O` [Example 394, 3-(2-Cyanophenyl)-5-(2-pyridinecarbonyl)-1-phenyl-1,2-dihydropyridin-2-one], the IC50 under setting [3] was 1400 nM.

Regarding `O=c1c(-c2ccccc2Cl)cc(-c2ccccn2)cn1-c1ccc(F)cc1` [Example 99, 3-(2-Chlorophenyl)-5-(2-pyridyl)-1-(4-fluorophenyl)-1,2-dihydropyridin-2-one], under setting [1], the IC50 is 100 nM. With `O=c1c(-c2ccccc2CO)cc(-c2ccccn2)cn1-c1ccccc1` [Example 147, 3-(2-Hydroxymethylphenyl)-5-(2-pyridyl)-1-phenyl-1,2-dihydropyridin-2-one], under setting [2], the IC50 amounted to 1600 nM.

For `COc1ccc(-c2cc(-c3ccccc3C#N)c(=O)n(-c3ccccc3)c2)cn1` [Example 200, 3-(2-Cyanophenyl)-5-(2-methoxypyridin-5-yl)-1-phenyl-1,2-dihydropyridin-2-one], the IC50 under setting [2] was found to be 2000 nM. `N#Cc1cccc(-n2cc(-c3ccccn3)cc(-c3ccccc3C#N)c2=O)c1` [Example 94, 3-(2-Cyanophenyl)-5-(2-pyridyl)-1-(3-cyanophenyl)-1,2-dihydropyridin-2-one] came in with an IC50 under setting [1] of 1500 nM. `N#Cc1ccccc1-c1cc(-c2ccccn2)cn(-c2ccc(OCCOCc3ccccc3)nc2)c1=O` [Example 114, 3-(2-Cyanophenyl)-5-(2-pyridyl)-1-(2-benzyloxyethoxypyridin-5-yl)-1,2-dihydropyridin-2-one] had an IC50 under setting [1] of 600 nM. For the compound `O=c1c(-c2nc3ccccc3n2-c2ccccc2)cc(-c2ccccn2)cn1-c1ccccc1` [Example 360, 3-(1-Phenylbenzimidazol-2-yl)-5-(2-pyridyl)-1-phenyl-1,2-dihydropyridin-2-one], under setting [3], the IC50 was determined as 3100 nM. As for `COC(=O)c1ccccc1-c1cc(-c2ccccn2)cn(-c2ccccc2)c1=O` [Example 58, 3-(2-Methoxycarbonylphenyl)-5-(2-pyridyl)-1-phenyl-1,2-dihydropyridin-2-one], half-maximal inhibition under setting [1] (IC50) was put at 100 nM.

The compound `CNc1cccc(-n2cc(-c3ccccn3)cc(-c3ccccc3C#N)c2=O)c1` [Example 11, 3-(2-Cyanophenyl)-5-(2-pyridyl)-1-(3-methylaminophenyl)-1,2-dihydropyridin-2-one] showed an IC50 under setting [1] of 60 nM.

Take `O=c1c(-c2cccc3ccccc23)cc(-c2ccccn2)cn1-c1cccnc1` [Example 279, 3-(1-Naphthyl)-5-(2-pyridyl)-1-(3-pyridyl)-1,2-dihydropyridin-2-one]: under setting [2], the IC50 amounted to 3700 nM. For `O=c1c(-c2nc3ccccc3[nH]2)cc(-c2ccccn2)cn1-c1ccccc1` [Example 190, 3-(1H-Benzimidazol-2-yl)-5-(2-pyridyl)-1-phenyl-1,2-dihydropyridin-2-one], the concentration for half-maximal inhibition (IC50) under setting [2] worked out at 600 nM.

As to `N#Cc1ccccc1-c1cc(-c2ccccn2)cn(CC2CCCC2)c1=O` [Example 317, 3-(2-Cyanophenyl)-1-cyclopentylmethyl-5-(2-pyridyl)-1,2-dihydropyridin-2-one], it took 600 nM to reach half-maximal inhibition under setting [3] (IC50).

As for `N#Cc1ccccc1-c1cc(-c2ccccn2)cn(-c2ccccc2CO)c1=O` [Example 149, 3-(2-Cyanophenyl)-5-(2-pyridyl)-1-(2-hydroxymethylphenyl)-1,2-dihydropyridin-2-one], under setting [2], the IC50 turned out to be 100 nM. Consider `N#Cc1ccccc1-c1cc(-c2ccccn2)cn(-c2cccc3cccnc23)c1=O` [Example 292, 3-(2-Cyanophenyl)-5-(2-pyridyl)-1-(8-quinolinyl)-1,2-dihydropyridin-2-one], for which, under setting [2], the IC50 stood at 3300 nM. `N#Cc1ccccc1-c1cc(-c2ncccc2N)cn(-c2ccccc2)c1=O` [Example 216, 5-(3-Aminopyridin-2-yl)-3-(2-cyanophenyl)-1-phenyl-1,2-dihydropyridin-2-one]: under setting [2], the IC50 came to 2400 nM. On to `COc1cccc(-c2cc(-c3ccccn3)cn(-c3ccccc3)c2=O)c1` [Example 69, 3-(3-Methoxyphenyl)-5-(2-pyridyl)-1-phenyl-1,2-dihydropyridin-2-one], for which, under setting [1], 900 nM corresponded to half-maximal inhibition (IC50).

`Cc1ccc(-n2cc(-c3ccccn3)cc(-c3ccccc3C#N)c2=O)cc1[N+](=O)[O-]` [Example 381, 3-(2-Cyanophenyl)-5-(2-pyridyl)-1-(2-nitrotoluen-4-yl)-1,2-dihydropyridin-2-one] registered an IC50 under setting [3] of 400 nM. Take `N#Cc1ccccc1-c1cc(-c2ccccn2)cn(-c2ccccc2C=O)c1=O` [Example 101, 3-(2-Cyanophenyl)-5-(2-pyridyl)-1-(2-formylphenyl)-1,2-dihydropyridin-2-one]: the IC50 under setting [1] was determined as 200 nM.

As for `O=c1c(-c2cccnc2F)cc(-c2ncccn2)cn1-c1cccnc1` [Example 263, 3-(2-Fuluoropyridin-3-yl)-1-(3-pyridyl)-5-(2-pyrimidinyl)-1,2-dihydropyridin-2-one], under setting [2], the IC50 was determined as 1000 nM. The same measure, in the same setting: in the case of `O=Cc1sccc1-c1cc(-c2ccccn2)cn(-c2ccccc2)c1=O` [Example 286, 3-(2-Formylthiophen-3-yl)-5-(2-pyridyl)-1-phenyl-1,2-dihydropyridin-2-one] it was 300 nM.

`O=c1c(-n2ccc3ccccc32)cc(-c2ccccn2)cn1-c1ccccc1` [Example 326, 3-(Indol-1-yl)-5-(2-pyridyl)-1-phenyl-1,2-dihydropyridin-2-one] showed an IC50 under setting [3] of 900 nM.
